Measured values as given in US9695155B2, “Herbicidal substituted pyrimidinyloxy benzene compounds” (E. I. DU PONT DE NEMOURS AND COMPANY, priority 2013, dated 2017).

Tests used:
field poppy = experiment: Test D preemergence; format: in vivo, Papaver rhoeas
Text: (§1) Seeds of plant species selected from bluegrass (annual bluegrass, Poa annua), blackgrass (Alopecurus myosuroides), canarygrass (littleseed canarygrass, Phalaris minor), chickweed (common chickweed, Stellaria media), galium (catchweed bedstraw, Galium aparine), bromegrass, downy (downy bromegrass, Bromus tectorum), field poppy (Papaver rhoeas), field violet (Viola arvensis), green foxtail (Setaria viridis), deadnettle (henbit deadnettle, Lamium amplexicaule), Italian ryegrass (Lolium multiflorum), kochia (Kochia scoparia), lambsquarters (Chenopodium album), oilseed rape (Brassica napus), pigweed (Amaranthus retroflexus), chamomile (scentless chamomile, Matricaria inodora), Russian thistle (Salsola kali), speedwell (bird's-eye speedwell, Veronica persica), spring barley (Hordeum vulgare), spring wheat (Triticum aestivum), wild buckwheat (Polygonum convolvulus), wild mustard (Sinapis arvensis), wild oat (Avena fatua), wild radish (Raphanus raphanistrum), windgrass (Apera spica-venti), winter barley (Hordeum vulgare), and winter wheat (Triticum aestivum) were planted into a silt loam soil and treated preemergence with test chemicals formulated in a non-phytotoxic solvent mixture which included a surfactant.
(§2) At the same time, these species were planted in pots containing Redi-Earth® planting medium (Scotts Company, 14111 Scottslawn Road, Marysville, Ohio 43041) comprising spaghnum peat moss, vermiculite, wetting agent and starter nutrients and treated with postemergence applications of the test chemicals formulated in the same manner. Plants ranged in height from 2 to 18 cm (1- to 4-leaf stage). Treated plants and controls were maintained in a controlled growth environment for 7 to 21 days after which time all species were compared to controls and visually evaluated. Plant response ratings, summarized in Table D, are based on a scale of 0 to 100 where 0 is no effect and 100 is complete control. A dash (-) response means no test result.

lambsquarters = experiment: Test D preemergence; format: in vivo, Chenopodium album
Text: as §1, §2

wild radish = experiment: Test D postemergence; format: in vivo, Raphanus raphanistrum
Text: as §1, §2

bluegrass = experiment: Test D postemergence; format: in vivo, Poa annua
Text: as §1, §2

oilseed rape = experiment: Test D postemergence; format: in vivo, Brassica napus
Text: as §1, §2

deadnettle = experiment: Test D postemergence; format: in vivo, Lamium amplexicaule
Text: as §1, §2

green foxtail = experiment: Test D preemergence; format: in vivo, Setaria viridis
Text: as §1, §2

[1] = 16 g ai/ha, scale 0 (no effect) to 100 (complete control)
[2] = 31 g ai/ha, scale 0 to 100 (0 no effect, 100 complete control)
[3] = 62 g ai/ha, scale 0 to 100 (0 no effect, 100 complete control)
[4] = 125 g ai/ha, scale 0 to 100 (0 no effect, 100 complete control)

## Fc1cccc(Oc2ncc(Cl)cn2)c1-n1cc(C(F)F)nn1 [Compound 141, 5-chloro-2-[2-[4-(difluoromethyl)-1H-1,2,3-triazol-1-yl]-3-fluorophenoxy]pyrimidine]
Field poppy; Papaver rhoeas, pre-emergence, 16 g ai/ha, scale 0 (no effect) to 100 (complete control), read-out: Plant response rating, Field Poppy
  pest or weed control at 16 g/ha: 98%
Field poppy; Papaver rhoeas, pre-emergence, 31 g ai/ha, scale 0-100, read-out: Plant response rating, Field Poppy
  pest or weed control at 31 g/ha: 100%
Field poppy; Papaver rhoeas, pre-emergence, 62 g ai/ha, scale 0-100, read-out: Plant response rating, Field Poppy
  pest or weed control at 62 g/ha: 100%
Field poppy; Papaver rhoeas, pre-emergence, 125 g ai/ha, scale 0-100, read-out: Plant response rating, Field Poppy
  pest or weed control at 125 g/ha: 100%
lambsquarters; Chenopodium album, pre-emergence, 16 g ai/ha, scale 0 (no effect) to 100 (complete control), read-out: Plant response rating, Lambsquarters
  pest or weed control at 16 g/ha: 100%
lambsquarters; Chenopodium album, pre-emergence, 31 g ai/ha, scale 0-100, read-out: Plant response rating, Lambsquarters
  pest or weed control at 31 g/ha: 100%
lambsquarters; Chenopodium album, pre-emergence, 62 g ai/ha, scale 0-100, read-out: Plant response rating, Lambsquarters
  pest or weed control at 62 g/ha: 100%
lambsquarters; Chenopodium album, pre-emergence, 125 g ai/ha, scale 0-100, read-out: Plant response rating, Lambsquarters
  pest or weed control at 125 g/ha: 100%
Wild radish; Raphanus raphanistrum, post-emergence, 16 g ai/ha, scale 0-100, read-out: Plant response rating, Radish, Wild
  pest or weed control at 16 g/ha: 90%
Wild radish; Raphanus raphanistrum, post-emergence, 31 g ai/ha, scale 0 to 100 (0 no effect, 100 complete control), read-out: Plant response rating, Radish, Wild
  pest or weed control at 31 g/ha: 95%
Wild radish; Raphanus raphanistrum, post-emergence, 62 g ai/ha, scale 0 to 100 (0 no effect, 100 complete control), read-out: Plant response rating, Radish, Wild
  pest or weed control at 62 g/ha: 100%
Wild radish; Raphanus raphanistrum, post-emergence, 125 g ai/ha, scale 0 to 100 (0 no effect, 100 complete control), read-out: Plant response rating, Radish, Wild
  pest or weed control at 125 g/ha: 100%
bluegrass; Poa annua, post-emergence, Postemergence, 16 g ai/ha, scale 0 to 100 (0 no effect, 100 complete control), read-out: Plant response rating, Bluegrass
  pest or weed control at 16 g/ha: 5%
bluegrass; Poa annua, post-emergence, Postemergence, 31 g ai/ha, scale 0 to 100 (0 no effect, 100 complete control), read-out: Plant response rating, Bluegrass
  pest or weed control at 31 g/ha: 20%
bluegrass; Poa annua, post-emergence, Postemergence, 62 g ai/ha, scale 0 to 100 (0 no effect, 100 complete control), read-out: Plant response rating, Bluegrass
  pest or weed control at 62 g/ha: 35%
bluegrass; Poa annua, post-emergence, Postemergence, 125 g ai/ha, scale 0 to 100 (0 no effect, 100 complete control), read-out: Plant response rating, Bluegrass
  pest or weed control at 125 g/ha: 40%
Oilseed rape; Brassica napus, post-emergence, 16 g ai/ha, scale 0-100, read-out: Plant response rating, Oilseed Rape
  plant injury at 16 g/ha: 75%
Oilseed rape; Brassica napus, post-emergence, 31 g ai/ha, scale 0 to 100 (0 no effect, 100 complete control), read-out: Plant response rating, Oilseed Rape
  plant injury at 31 g/ha: 95%
Oilseed rape; Brassica napus, post-emergence, 62 g ai/ha, scale 0 to 100 (0 no effect, 100 complete control), read-out: Plant response rating, Oilseed Rape
  plant injury at 62 g/ha: 100%
Oilseed rape; Brassica napus, post-emergence, 125 g ai/ha, scale 0 to 100 (0 no effect, 100 complete control), read-out: Plant response rating, Oilseed Rape
  plant injury at 125 g/ha: 100%
deadnettle; Lamium amplexicaule, post-emergence, 16 g ai/ha, scale 0-100, read-out: Plant response rating, Deadnettle
  pest or weed control at 16 g/ha: 100%
deadnettle; Lamium amplexicaule, post-emergence, 31 g ai/ha, scale 0 to 100 (0 no effect, 100 complete control), read-out: Plant response rating, Deadnettle
  pest or weed control at 31 g/ha: 100%
deadnettle; Lamium amplexicaule, post-emergence, 62 g ai/ha, scale 0 to 100 (0 no effect, 100 complete control), read-out: Plant response rating, Deadnettle
  pest or weed control at 62 g/ha: 100%
deadnettle; Lamium amplexicaule, post-emergence, 125 g ai/ha, scale 0 to 100 (0 no effect, 100 complete control), read-out: Plant response rating, Deadnettle
  pest or weed control at 125 g/ha: 100%
Green foxtail; Setaria viridis, pre-emergence, 16 g ai/ha, scale 0 (no effect) to 100 (complete control), read-out: Plant response rating, Foxtail, Green
  pest or weed control at 16 g/ha: 10%
Green foxtail; Setaria viridis, pre-emergence, 31 g ai/ha, scale 0-100, read-out: Plant response rating, Foxtail, Green
  pest or weed control at 31 g/ha: 100%
Green foxtail; Setaria viridis, pre-emergence, 62 g ai/ha, scale 0-100, read-out: Plant response rating, Foxtail, Green
  pest or weed control at 62 g/ha: 100%
Green foxtail; Setaria viridis, pre-emergence, 125 g ai/ha, scale 0-100, read-out: Plant response rating, Foxtail, Green
  pest or weed control at 125 g/ha: 100%

## FCc1cccc(Oc2ncc(Cl)cn2)c1-n1cc(I)cn1 [Compound 245]
Field poppy; [1]
  Plant response rating, Field Poppy: 100
Field poppy; 31 g ai/ha, scale 0-100
  Plant response rating, Field Poppy: 100
Field poppy; 62 g ai/ha, scale 0-100
  Plant response rating, Field Poppy: 100
Field poppy; 125 g ai/ha, scale 0-100
  Plant response rating, Field Poppy: 100
lambsquarters; [1]
  Plant response rating, Lambsquarters: 85
lambsquarters; 31 g ai/ha, scale 0-100
  Plant response rating, Lambsquarters: 100
lambsquarters; 62 g ai/ha, scale 0-100
  Plant response rating, Lambsquarters: 100
lambsquarters; 125 g ai/ha, scale 0-100
  Plant response rating, Lambsquarters: 100
Wild radish; 16 g ai/ha, scale 0-100
  Plant response rating, Radish, Wild: 35
Wild radish; [2]
  Plant response rating, Radish, Wild: 45
Wild radish; [3]
  Plant response rating, Radish, Wild: 55
Wild radish; [4]
  Plant response rating, Radish, Wild: 85
bluegrass; Postemergence, 62 g ai/ha, scale 0 to 100 (0 no effect, 100 complete control)
  Plant response rating, Bluegrass: 15
bluegrass; Postemergence, 31 g ai/ha, scale 0 to 100 (0 no effect, 100 complete control)
  Plant response rating, Bluegrass: 20
bluegrass; Postemergence, 125 g ai/ha, scale 0 to 100 (0 no effect, 100 complete control)
  Plant response rating, Bluegrass: 30
bluegrass; postemergence, 16 g ai/ha, scale 0 to 100, 0 no effect, 100 complete control
  Plant response rating, Bluegrass: 10
Oilseed rape; 16 g ai/ha, scale 0-100
  Plant response rating, Oilseed Rape: 30
Oilseed rape; [2]
  Plant response rating, Oilseed Rape: 45
Oilseed rape; [3]
  Plant response rating, Oilseed Rape: 60
Oilseed rape; [4]
  Plant response rating, Oilseed Rape: 75
deadnettle; 16 g ai/ha, scale 0-100
  Plant response rating, Deadnettle: 100
deadnettle; [2]
  Plant response rating, Deadnettle: 100
deadnettle; [3]
  Plant response rating, Deadnettle: 100
deadnettle; [4]
  Plant response rating, Deadnettle: 100
Green foxtail; [1]
  Plant response rating, Foxtail, Green: 0
Green foxtail; 31 g ai/ha, scale 0-100
  Plant response rating, Foxtail, Green: 0
Green foxtail; 62 g ai/ha, scale 0-100
  Plant response rating, Foxtail, Green: 0
Green foxtail; 125 g ai/ha, scale 0-100
  Plant response rating, Foxtail, Green: 35
